This note sets out measurements from US7056913B2, “C8—linked pyrrolo[2,1-c][1,4]benzodiazepine-acridone/acridine hybrids” (Council of Scientific and Industrial Research, priority 2004, dated 2006).

One data set concerns sixty human tumour cells. The data set can be described thus: NCI in vitro cytotoxicity, SRB assay, mean graph midpoints. The format is cell-based. As to conditions: 48 h continuous drug exposure. Here is the method:
(§1) Cytotoxicity: 7-methoxy-8-[3′-(4″-acridonylcarboxamido)propyl]-oxy-(11aS)1,2,3,11a-tetrahydro-5H-pyrrolo[2,1-c][1,4]benzodiazepin-5-one of formula IV was evaluated for primary anti-cancer activity (Table 1) and in vitro against sixty human tumour cells derived from nine cancer types (leukemia, non-small-cell lung, colon, CNS, melanoma, ovarian, prostate, and breast cancer). For each compound, dose response curves for each cell line were measured at a minimum of five concentrations at 10 fold dilutions. A protocol of 48 h continuous drug expose was used and a sulforhodamine B (SRB) protein assay was used to estimate cell viability or growth. The concentration causing 50% cell growth inhibition (GI50), total cell growth inhibition (TGI, 0% growth) and 50% cell death (LC50, −50% growth) compared with the control was calculated.
For orientation: Sulforhodamine B stains cellular protein and so reports cell mass.

In a further data set the test system is CNS cancer (SNB-75). The data set can be described thus: NCI in vitro cytotoxicity, SRB assay. The format is cell-based, human. As to conditions: SNB-75 CNS; read-out: potency at the LC50 level. How it is done: as §1
Data set [1] has as its system melanoma cancer cell line M14. The data set can be described thus: NCI in vitro cytotoxicity, SRB assay. The format is cell-based, human. Particulars: read-out: potency at the LC50 level. How it is done: as §1
Data set [2] deals with breast cancer (MDA-MB-435). The data set can be described thus: NCI in vitro cytotoxicity, SRB assay. The format is cell-based, human. As to conditions: MDA-MB-435 breast; read-out: potency at the LC50 level. How it is done:
as §1

Data set [3] concerns melanoma cancer (UACC-62). The data set can be described thus: NCI in vitro cytotoxicity, SRB assay. The format is cell-based, human. Particulars: UACC-62 melanoma; read-out: potency at the LC50 level. How it is done:
as §1

Data set [4] concerns melanoma cancer cell line LOXIMVI. Description: NCI in vitro cytotoxicity, SRB assay. Format: cell-based, human. As to conditions: read-out: potency at the LC50 level. Here is the method: as §1
The test system of the next data set is colon cancer (HCC-2998). The data set can be described thus: NCI in vitro cytotoxicity, SRB assay. Particulars: HCC-2998 colon; read-out: potency at the LC50 level. The format is cell-based, human. Here is the method:
as §1

A further data set has as its system renal cancer (SN12C). The data set can be described thus: NCI in vitro cytotoxicity, SRB assay. As to conditions: read-out: potency at the LC50 level. The format is cell-based, human. Here is the method: as §1
A further data set concerns NCI-H460 (Lung). Description: In vitro one dose primary anticancer assay. Format: cell-based, human. As to conditions: one dose at 10^−4 molar concentration. How it is done:
as §1

The next data set has as its system SF-268 (CNS). The data set can be described thus: In vitro one dose primary anticancer assay. Particulars: one dose at 10^−4 molar concentration. The format is cell-based, human. Here is the method: as §1
Another data set relates to MCF7 (Breast). Description: In vitro one dose primary anticancer assay. The format is cell-based, human. Particulars: one dose at 10^−4 molar concentration. Here is the method: as §1
Data set [5] concerns non-small-cell lung cancer cell lines. Description: NCI in vitro cytotoxicity, SRB assay, cancer type average. The format is cell-based, human. As to conditions: average of six to nine cell lines. Here is the method: as §1
(§2) Each cancer type represents the average of six to nine different cancer cell lines.

The test system of data set [6] is Melanoma cancer cell lines. The data set is described as above. The format is cell-based, human. Particulars: average of six to nine cell lines. Here is the method: as §1, §2
Another data set relates to Breast cancer cell lines. The description is as above. Format: cell-based, human. Particulars: average of six to nine cell lines. Here is the method: as §1, §2
The test system of a further data set is Renal cancer cell lines. The description is as above. The format is cell-based, human. As to conditions: average of six to nine cell lines. How it is done:
as §1, §2

Data set [7] relates to Ovarian cancer cell lines. Described as above. Particulars: average of six to nine cell lines. The format is cell-based, human. Here is the method: as §1, §2
A further data set relates to CNS cancer cell lines. The data set is described as above. The format is cell-based, human. Particulars: average of six to nine cell lines. How it is done: as §1, §2
A further data set relates to Colon cancer cell lines. The description is as above. Format: cell-based, human. As to conditions: average of six to nine cell lines. Here is the method:
as §1, §2

As a reminder, the LC50 is the concentration that kills 50% of the test population. Regarding `COc1cc2c(cc1OCCCNC(=O)c1cccc3c(=O)c4ccccc4[nH]c13)N=C[C@@H]1CCCN1C2=O` [Compound IV, 7-methoxy-8-[3′-(4″-acridonylcarboxamido)propyl]-oxy-(11aS)1,2,3,11a-tetrahydro-5H-pyrrolo[2,1-c][1,4]benzodiazepin-5-one], the “Log10 LC50 mean graph midpoint (MG_MID)” value in the data set on sixty human tumour cells (50% cell death) is given as −4.32. Moreover, the “Log10 GI50 mean graph midpoint (MG_MID)” value in the data set on sixty human tumour cells (50% cell growth inhibition) is recorded as −7.73. Also, the “Log10 TGI mean graph midpoint (MG_MID)” value in the data set on sixty human tumour cells (total cell growth inhibition) is listed as −5.56. Moreover, the values for the LC50 (concentration causing 50% cell death) (in the data set on CNS cancer (SNB-75); in data set [3]; with renal cancer (SN12C)) were 100 nM, less than 10 nM and more than 10 µM, respectively. The LC50 in data set [1] is more than 10 µM. Moreover, the CC50 in [2] was 100 nM; in [4] it was more than 10 µM. Also, the LC50 (concentration killing 50% of cells) in the data set on colon cancer (HCC-2998) is 100 nM. For the same molecule, the “Growth percentages (Lung) NCI-H460” value in the data set on NCI-H460 (Lung) amounted to 0%. Also, the “Growth percentages (CNS) SF-268” value in the data set on SF-268 (CNS) was determined as 10%. In addition, in the data set with MCF7 (Breast), the “Growth percentages (Breast) MCF7” value came to 0%. The “Log LC50 (concentration in mol/L causing 50% lethality)” value in data set [5] is −4.14 log10(mol/L); in data set [6], −5.09 mol/L; with Breast cancer cell lines it was −4.40 mol/L; in the data set with Renal cancer cell lines, −4.27 mol/L; in [7], −4.012 log(mol/L); in the data set on CNS cancer cell lines, −4.425 mol/L. Besides, in the data set with Colon cancer cell lines, the “Log LC50 (concentration in mol/L causing 50% lethality)” value is reported as −4.33 mol/L.
